Laboratory results taken from patent publication US11931347B2, “Method of screening for agents for differentiating stem cells” (MINERVA BIOTECHNOLOGIES CORPORATION, priority 2015, dated 2024).
“Also recorded” adds a separate entry of the source.

What was measured:
[1] = test system: human naïve state stem cells; assay: stem cell drug screening assay on naïve state stem cells; format: cell-based; conditions: 500 nM or 1 uM, cells from NME7AB or NME1 dimers, growth factor absent
[2] = test system: human primed state stem cells; assay: stem cell drug screening assay on primed state stem cells; format: cell-based; conditions: treated for 3 days, bFGF absent
Description: The stem cell screening assay, was performed in both the presence and absence of the stem cell growth factors: NME7AB for growing naïve stem cells or FGF for growing primed stem cells. If the cognate growth factor was present, then the biological or small molecule would have to compete away the growth factor to get an effect. Therefore, we expected to see more of an effect when the growth factor, FGF for primed stem cells or NME7AB or NME1 dimers for naïve stem cells, was absent. The effect of the compounds on stem cells was visually determined and compounds were ranked 0-4, with 4 being the greatest effect and 0 being no observable effect. The major effect that was observed was a change from pluripotent stem cell morphology, which is a cobblestone pattern of small round cells with a large nucleus to cytoplasm ratio, to that of differentiating stem cells, which are elongated, large and flattened cells with a smaller nucleus to cytoplasm ratio. […] The compounds were added to a final concentration of 6 uM to either naïve state stem cells or primed state stem cells. In this particular case, the naïve state stem cells were maintained in a naïve state by culturing in a media containing NME7AB or NME1 dimers. However, other methods such as 2i and 5i (Silva et al., 2008, Nichols and Smith, 2009, Theunissen et al., 2014)] can be used to maintain stem cells in a more naïve state. In this case primed state stem cells were cultured in bFGF over a layer of MEFs, although it is known that any bFGF containing media will maintain stem cells in the primed state.
Stem cells whether embryonic or induced pluripotent stem (iPS) cells were cultured in a minimal, serum-free media that contained human recombinant bFGF at a concentration of 8 ng/mL. The stem cells were plated over a layer of inactivated mouse embryonic fibroblasts, aka MEFs, which secrete additional uncharacterized growth factors and cytokines.
Human naïve state and primed stem cells were cultured in parallel for at least 5 passages to guarantee normal differentiation-free growth. The stem cells were plated in 12-well cell culture plates with 50,000 cells per well. Cells were cultured in their respective media, either bFGF media or NME7AB media for 24 hours. Media was then removed and replaced with media devoid of bFGF or NME7AB, when indicated. Agents being tested for their ability to induce differentiation of naïve stem cells were added to the media at the concentrations indicated. After 72 hours, photographs were taken see FIGS. 1-10.
Human naïve state and primed stem cells were cultured in parallel for at least 5 passages to guarantee normal differentiation-free growth. The stem cells were plated in 12-well cell culture plates with 50,000 cells per well. Cells were cultured in their respective media, either bFGF media or NME7AB media for 24 hours. Media was then removed and replaced with media devoid of bFGF or NME7AB. […] Media was changed after 48 hours and replaced with fresh media containing the BRD4 inhibitors. After 4 days the experiment was stopped. Photographs were taken and cell pellets collected for further analysis, see FIGS. 11-16.

[3] = test system: OV-90 MUC1* negative ovarian cancer cells; assay: cancer cell proliferation assay (Calcein); format: cell-based; conditions: 96 hours (FIG. 114)
[4] = test system: E-cadherin, fibronectin, vimentin and NF1 expression in naïve stem cells; assay: RT-PCR of differentiation markers in treated naïve stem cells; format: cell-based, human
Description: FIG. 161 is a graph of RT-PCR measurement of naïve stem cells that have been treated with compounds of the invention. The genes whose expression is measured are E-cadherin, which goes […] as cells undergo epithelial to mesenchymal transition, fibronectin and vimentin, which both increase as stem cells initiate differentiation and NF1, which is one of the first genes to increase when stem cells begin to differentiate down the neural lineage. […] E-cadherin is the opposite; it […] as cells become cancerous. […] Expression of metastatic marker E-cadherin was reduced and expression of differentiation markers fibronectin, vimentin and NF1 were increased (FIG. 162-FIG. 163). Novel compounds of the invention are highly specific. […] Although we discovered that NME1 dimers, NME7AB and NME7-X1 are all activating ligands of the MUC1* growth factor receptor and they bind to its extracellular domain, we have developed ample evidence that both NME7AB and NME7-X1 have other binding partners and can exert oncogenic effects, independent of MUC1*.

Which “effect on naïve stem cell differentiation and growth” value [1] does the source give for `Cc1sc2c(c1C)C(c1ccc(Cl)cc1)=N[C@@H](CC(=O)OC(C)(C)C)c1nnc(C)n1-2` [JQ1+, JQ1] here?
Its value is “dramatically induced differentiation”.

What about the “effect on naïve stem cell differentiation and growth” value ([1]; listed as JQI) of the same compound?
The value was “inhibitory effect”.

And the “effect on primed stem cell colony size and morphology” value ([2]; listed as JQ1(+))?
Its value is “modest effect on the size of primed stem cell colonies; also recorded: some abnormal morphology”.

And the “induction of differentiation of primed state stem cells” value ([2]; listed as JQ1(+))?
Its value is “None of these agents appeared to induce differentiation”.

And the “induction of differentiation of primed state stem cells” value ([2]; listed as JQI)?
Its value is “not primed stem cell growth”.

And the “effect on growth of OV-90 cells” value [3]?
The value was “neither the compounds of the invention nor JQ1 or SU11274 had any apparent effect”.

What about the “up-regulation of markers of differentiation in naïve stem cells (RT-PCR)” value [4] of the same compound?
Its value is “did not cause up-regulation of markers of differentiation”.
